One molecule from patent US20110250184A1, “METHODS FOR DETERMINING EFFICACY OF A THERAPEUTIC REGIMEN AGAINST DELETERIOUS EFFECTS OF CYTOTOXIC AGENTS IN HUMAN” (priority 2008, published 2011) can be followed below.

The test deals with human bone marrow cells. The experiment in a line: In vitro radiation protection of human bone marrow cells (methocult CFU). It counts as cell-based. On the procedure: FIG. 3. In vitro radiation protection of human bone marrow cells. Human bone marrow cells were treated with increasing concentrations of ON 01210.Na for 3 hours, and then irradiated with increasing doses of ionizing radiation. The cells were plated into methocult and the total number of CFUs was determined 14 days later.
Radiation protection assays were then performed (FIG. 3). Cells were treated with ON 01210.Na for 3 hours, irradiated, and plated in methocult. The total number of colony forming units was determined 14 days later. […] This compared very favorably when analyzed against protection studies using amifostine as a positive control.
Human bone marrow cells were treated with increasing concentrations of ON 01210.Na for 3 hours, and then irradiated with increasing doses of ionizing radiation. The cells were plated into methocult and the total number of CFUs was determined 14 days later.
When we plotted the survival curve at the optimal concentration of ON 01210.Na (FIG. 3C) we were able to calculate a dose reduction factor (DRF) of 1.6. We also tested the radiation protection activity of amifostine. Amifostine concentrations were selected that closely mimicked the therapeutic plasma concentrations. […] The calculated DRF value of 1.5 was determined from these experiments.

Take `NCCCNCCSP(=O)(O)O` [amifostine, reference compound]: where the note is “amifostine”, the “optimal concentration for radiation protection” value was found to be 0.25 mM. Besides, the “dose reduction factor (DRF)” value (amifostine 0.25 mM (optimal)) came to 1.5. Further, for the setting “data not shown”, the “range of concentrations that protected cells” value is listed as “narrow range of concentrations”.
